From the supplement of paper PMC8671470

Tests used:
Conditions in all cases: 72 h
HL-60 [1] = experiment: area under dose-response curve (viability, 1 nM-10 uM) (fraction (0-1)); higher = more sensitive
Procedure, shortened: (§1)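 Four-parameter log-logistic fits in drc and PharmacoGx supplied area under the curve where it is given. Underlying viability came from CellTiter-Glo, normalised to DMSO and proteasome-inhibitor wells, with the proteasome inhibitor at 10 μM. HL-60 cells in RPMI 1640 plus 10% FBS had been rescreened against the full library at five tenfold concentrations of 1–10,000 nM, in duplicate on 384-well plates, with DMSO or 100 nM of one of three metabolic inhibitors, for 72 h at 37 °C, 5% CO2.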

HEL [2] = tested on: HEL
Procedure, shortened: (§2)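 The IC50 was derived from log-logistic dose–response fitting. Each of fifteen myeloid leukaemia cell lines, seeded in RPMI 1640 within its linear growth range, was exposed in 384-well plates to five tenfold doses (1 to 10,000 nM) in duplicate for 72 h at 37 °C and 5% CO2. Luminescent ATP viability readings were normalised to vehicle and to a positive control at 10 µM before four-parameter curve fitting.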

NOMO-1 [3] = tested on: NOMO-1
Procedure, shortened: as §2

BV-173 [4] = tested on: BV-173
Procedure, shortened: as §2

MOLM-13 = tested on: MOLM-13
Procedure, shortened: as §2

KG-1 = tested on: KG-1
Procedure, shortened: as §2

THP-1 = tested on: THP-1
Procedure, shortened: as §2

KCL-22 [5] = tested on: KCL-22
Procedure, shortened: as §2

MV4-11 = tested on: MV4-11
Procedure, shortened: as §2

HL-60 [6] = tested on: HL-60
Procedure, shortened: as §2

KU-812 [7] = tested on: KU-812
Procedure, shortened: as §2

Mono-Mac-6 [8] = tested on: Mono-Mac-6
Procedure, shortened: as §2

ML-2 [9] = tested on: ML-2
Procedure, shortened: as §2

LAMA-84 [10] = tested on: LAMA-84
Procedure, shortened: as §2

K-562 [11] = tested on: K-562
Procedure, shortened: as §2

SHI-1 [12] = tested on: SHI-1
Procedure, shortened: as §2

HL-60 [13] = experiment: cell viability (% survival relative to DMSO control); higher = less cytotoxic
Procedure, shortened: as §1

HEL [14] = experiment: cell viability (% survival relative to DMSO control, bortezomib = 0%); higher = less cytotoxic
Procedure, shortened: (§3)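 Reported values are percent survival from duplicate wells, averaged. Fifteen myeloid leukaemia cell lines were treated in 384-well plates with compounds at 1, 10, 100, 1000 or 10000 nM for 72 h at 37 °C in 5% CO2. Signals from CellTiter-Glo luminescence were scaled with vehicle as 100% and a 10 µM positive control as 0%.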

NOMO-1 [15] = experiment: as above
Procedure, shortened: as §3

BV-173 [16] = experiment: as above
Procedure, shortened: as §3

KCL-22 [17] = experiment: as above
Procedure, shortened: as §3

HL-60 [18] = experiment: as above
Procedure, shortened: as §3

KU-812 [19] = experiment: as above
Procedure, shortened: as §3

Mono-Mac-6 [20] = experiment: as above
Procedure, shortened: as §3

ML-2 [21] = experiment: as above
Procedure, shortened: as §3

LAMA-84 [22] = experiment: as above
Procedure, shortened: as §3

K-562 [23] = experiment: as above
Procedure, shortened: as §3

SHI-1 [24] = experiment: as above
Procedure, shortened: as §3

COc1cc(/C=C/C(=O)N2CCC=CC2=O)cc(OC)c1OC [Piperlongumine]
Conditions | area under dose-response curve, co-treatment: AZD3965 100 nM | area under dose-response curve, co-treatment: DMSO vehicle | area under dose-response curve, co-treatment: GSK2194069 100 nM | area under dose-response curve, co-treatment: pictilisib 100 nM | cell viability, 1 nM [%] | cell viability, 10 nM [%] | cell viability, 100 nM [%] | cell viability, 1000 nM [%] | cell viability, 10000 nM [%]
BV-173 [16] | – | – | – | – | 93.3 | 99.9 | 101 | 71.4 | -0.383
HEL [14] | – | – | – | – | 90.1 | 111 | 103 | 97.5 | -0.0957
HL-60 [1] | 0.131 | 0.134 | 0.156 | 0.153 | – | – | – | – | –
HL-60 [18] | – | – | – | – | 92.7 | 100 | 102 | 85.7 | 0.441
K-562 [23] | – | – | – | – | 102 | 91.5 | 106 | 77.3 | 0.672
KCL-22 [17] | – | – | – | – | 92.3 | 109 | 90.3 | 93.5 | 1.29
KU-812 [19] | – | – | – | – | 94.6 | 110 | 94.9 | 92.2 | 3.51
LAMA-84 [22] | – | – | – | – | 104 | 106 | 104 | 98.8 | 2.16
ML-2 [21] | – | – | – | – | 102 | 100 | 92.8 | 72.6 | -0.133
Mono-Mac-6 [20] | – | – | – | – | 94.3 | 107 | 98.7 | 86.5 | 1.58
NOMO-1 [15] | – | – | – | – | 94.9 | 103 | 105 | 100 | 0.949
SHI-1 [24] | – | – | – | – | 100 | 98.3 | 106 | 89 | 0.583

Conditions | IC50 (cell viability) [µM]
BV-173 [4] | 1.62
HEL [2] | 3.03
HL-60 [6] | 2.36
K-562 [11] | 1.95
KCL-22 [5] | 2.92
KG-1 | 3.33
KU-812 [7] | 2.87
LAMA-84 [10] | 3.22
ML-2 [9] | 1.66
MOLM-13 | 1.93
MV4-11 | 0.959
Mono-Mac-6 [8] | 2.38
NOMO-1 [3] | 3.22
SHI-1 [12] | 2.53
THP-1 | 2.45

cell viability [%], HL-60 [13]
Conditions | 0.001 µM | 0.01 µM | 0.1 µM | 1 µM | 10 µM
co-treatment: AZD3965 100 nM | 101 | 104 | 102 | 99.9 | -0.192
co-treatment: DMSO vehicle | 98.08 | 100.5 | 102.8 | 97.9 | -0.533
co-treatment: GSK2194069 100 nM | 101 | 102 | 104.6 | 87.9 | -0.0941
co-treatment: pictilisib 100 nM | 97.3 | 94.8 | 94.9 | 83.8 | 3.95

O=C(NNc1ccccc1)c1ccncc1 [PluriSln 1]
Conditions | area under dose-response curve, co-treatment: AZD3965 100 nM | area under dose-response curve, co-treatment: DMSO vehicle | area under dose-response curve, co-treatment: GSK2194069 100 nM | area under dose-response curve, co-treatment: pictilisib 100 nM | cell viability, 1 nM [%] | cell viability, 10 nM [%] | cell viability, 100 nM [%] | cell viability, 1000 nM [%] | cell viability, 10000 nM [%]
BV-173 [16] | – | – | – | – | 86 | 93.5 | 97 | 104 | 82.6
HEL [14] | – | – | – | – | 95.1 | 99.2 | 96.8 | 105 | 78.1
HL-60 [1] | 0.0541 | 0.0377 | < 0.0301 | < 0.0301 | – | – | – | – | –
HL-60 [18] | – | – | – | – | 102 | 94.1 | 90.5 | 109 | 20.7
K-562 [23] | – | – | – | – | 93.4 | 85.7 | 90.4 | 86.4 | 52
KCL-22 [17] | – | – | – | – | 89.9 | 102 | 99.7 | 110 | 41.5
KU-812 [19] | – | – | – | – | 93.3 | 93.8 | 93.2 | 102 | 92.5
LAMA-84 [22] | – | – | – | – | 88.4 | 99.4 | 92.1 | 106 | 39.9
ML-2 [21] | – | – | – | – | 93.3 | 97.6 | 92.8 | 103 | 81
Mono-Mac-6 [20] | – | – | – | – | 106 | 103 | 104 | 110 | 87.2
NOMO-1 [15] | – | – | – | – | 91 | 101 | 91.8 | 106 | 89.6
SHI-1 [24] | – | – | – | – | 91.5 | 95.5 | 93 | 105 | 92.6

Conditions | IC50 (cell viability) [µM]
BV-173 [4] | > 10
HEL [2] | > 10
HL-60 [6] | 5.48
K-562 [11] | 9.7
KCL-22 [5] | 8.52
KG-1 | > 10
KU-812 [7] | > 10
LAMA-84 [10] | 8.48
ML-2 [9] | > 10
MOLM-13 | 5.72
MV4-11 | > 10
Mono-Mac-6 [8] | > 10
NOMO-1 [3] | > 10
SHI-1 [12] | > 10
THP-1 | > 10

cell viability [%], HL-60 [13]
Conditions | 0.001 µM | 0.01 µM | 0.1 µM | 1 µM | 10 µM
co-treatment: AZD3965 100 nM | 101 | 101 | 96.2 | 110 | 36
co-treatment: DMSO vehicle | 102 | 102 | 102 | 103 | 49.8
co-treatment: GSK2194069 100 nM | 103.4 | 103 | 95.8 | 104 | 91.3
co-treatment: pictilisib 100 nM | 94.1 | 107 | 83.7 | 116 | 92.411

CC(C)c1nc(CN(C)C(=O)N[C@H](C(=O)N[C@@H](Cc2ccccc2)C[C@H](O)[C@H](Cc2ccccc2)NC(=O)OCc2cncs2)C(C)C)cs1 [Ritonavir]
Conditions | area under dose-response curve, co-treatment: AZD3965 100 nM | area under dose-response curve, co-treatment: DMSO vehicle | area under dose-response curve, co-treatment: pictilisib 100 nM | cell viability, 1 nM [%] | cell viability, 10 nM [%] | cell viability, 100 nM [%] | cell viability, 1000 nM [%] | cell viability, 10000 nM [%]
BV-173 [16] | – | – | – | 107 | 89.8 | 96 | 85.7 | 39.1
HEL [14] | – | – | – | 90.8 | 99.8 | 107 | 94.2 | 87.8
HL-60 [1] | < 0.0301 | < 0.0301 | < 0.0301 | – | – | – | – | –
HL-60 [18] | – | – | – | 99 | 101 | 113 | 103 | 86.6
K-562 [23] | – | – | – | 112 | 112 | 89 | 108 | 75.5
KCL-22 [17] | – | – | – | 99.4 | 102 | 108 | 94.5 | 87.2
KU-812 [19] | – | – | – | 109 | 95.1 | 102 | 95.9 | 78.8
LAMA-84 [22] | – | – | – | 115 | 103 | 102 | 100 | 88.6
ML-2 [21] | – | – | – | 94.2 | 94.2 | 108 | 83.5 | 64.4
Mono-Mac-6 [20] | – | – | – | 91.7 | 98.6 | 97.6 | 88.1 | 79
NOMO-1 [15] | – | – | – | 108 | 88.5 | 103 | 90.3 | 81.3
SHI-1 [24] | – | – | – | 100 | 101 | 109 | 104 | 83.1

Conditions | IC50 (cell viability) [µM]
BV-173 [4] | 6.62
HEL [2] | > 10
HL-60 [6] | > 10
K-562 [11] | > 10
KCL-22 [5] | > 10
KG-1 | > 10
KU-812 [7] | > 10
LAMA-84 [10] | > 10
ML-2 [9] | > 10
MOLM-13 | > 10
MV4-11 | > 10
Mono-Mac-6 [8] | > 10
NOMO-1 [3] | > 10
SHI-1 [12] | > 10
THP-1 | > 10

cell viability [%], HL-60 [13]
Conditions | 0.001 µM | 0.01 µM | 0.1 µM | 1 µM | 10 µM
co-treatment: AZD3965 100 nM | 99.9 | 102 | 78.3 | 102 | 104
co-treatment: DMSO vehicle | 101 | 103.3 | 94.5 | 87.4 | 105.8
co-treatment: GSK2194069 100 nM | 94.5 | 110 | 88 | 86.6 | 67.1
co-treatment: pictilisib 100 nM | 105 | 101 | 97.5 | 93.9 | 99.2
